Tests used:
CXCR3-PK1 = biological target: T1, CXCR3-PK1 (Homo sapiens, UniProt P49682); test: β-arrestin 2 recruitment assay (PathHunter, DiscoveRx), CXCR3-PK1 construct; format: cell-based; settings: for CXCR3-PK1 pEC50 ± SEM: HEK293-T cells, PathHunter, two to three experiments in triplicate
T1 construct: expressed in transfected cells; host or cells: HEK293 cells stably expressing beta-gal enzyme acceptor (PathHunter, DiscoveRx), transiently transfected
T1 sequence (P49682 1-368): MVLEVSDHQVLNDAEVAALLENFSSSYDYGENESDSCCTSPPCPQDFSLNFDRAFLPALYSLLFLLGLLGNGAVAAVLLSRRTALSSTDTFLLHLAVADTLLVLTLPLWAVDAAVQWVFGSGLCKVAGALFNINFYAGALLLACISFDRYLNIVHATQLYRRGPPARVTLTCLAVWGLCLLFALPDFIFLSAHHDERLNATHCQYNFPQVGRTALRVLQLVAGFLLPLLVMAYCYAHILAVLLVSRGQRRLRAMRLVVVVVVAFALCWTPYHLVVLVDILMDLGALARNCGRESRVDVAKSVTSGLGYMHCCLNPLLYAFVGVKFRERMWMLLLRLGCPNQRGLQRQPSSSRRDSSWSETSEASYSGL
Method in brief: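 HEK293 cells stably expressing β-gal enzyme acceptor, transiently transfected with PK1-tagged wild-type CXCR3, seeded overnight at 37°C. Test compounds or CXCL11 at various concentrations in PBS pH 7.4 with 0.20% BSA, 4 h; detection mix 60 min at room temperature. β-gal fragment complementation read by chemiluminescence.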

[1] = system: HEK293 cells transiently transfected with CXCR3; test: Transwell migration assay; format: cell-based, human; settings: for influence on CXCL11 induced migration: cells pre-incubated 15 minutes, compound in both chambers, CXCL11 as chemoattractant, Figure 5B; for induced migration compared to buffer control: compound applied to the source reservoir, on its own, 5 h, Figure 5A
Protocol: Transwell migration assay. HEK-293 cells were maintained in DMEM medium supplemented with 10% FBS and 1% penicillin/streptomycin. For DNA transfection, 5 µg plasmid DNA (CXCR3) was mixed with TE buffer to give a final of 105 µl solution and 15 µl CaCl2 (2M) was added. The DNA mixture was then dripped into 120 µl 2x HBSS solution, and the mixture was allowed to form calcium-phosphate precipitates for 45 minutes. The DNA/calcium-phosphate precipitate was dripped onto HEK293 cells (50% confluent in T25 flask), where the medium had been renewed and reduced to 1.5 ml 30 minutes prior to transfection. The cells were split and used for assays 48 h after transfection.
Migration of serum-starved HEK293 cell transiently transfected with CXCR3 was assessed using Transwell™ membranes (Costar; 8-µm pore). Filters were coated with 10 µg•mL^-1 fibronectin (in PBS 30 minutes at room temperature). The fibronectin solution was removed and the filters allowed to air-dry. The filters were placed in a 24-well dish that contained low serum (0.2%) DMEM supplemented with agonists or control buffer. HEK293 cells suspended in 0.2% serum DMEM containing test compounds were added to the upper chamber (1 × 10^5 cells/well). Cells were allowed to migrate for 5 h at 37 °C. Nonmigrated cells were removed from the top filter surface with a cotton swab. Migrated cells, attached to the bottom surface, were fixed in 3.7% formaldehyde (in PBS) and dyed with crystal violet. Transmigrated cells were counted in 5 predefined areas on the membrane using 20X objective.
To investigate the influence of FAUC1036 and FAUC1104 on CXCR3 induced migration, the inventors used these compounds alongside CXCL11 in a standard transwell assay with HEK293 cells transiently transfected with CXCR3. […] To test whether FAUC1036 and FAUC1104 influence CXCL11 induced migration, the inventors pre-incubated the cells with these compounds for 15 minutes and then set up the migration assay in the presence of either compound in both the top chamber (sink) containing the cells and in the lower chamber (source) containing CXCL11 as chemoattractant.

Row | CXCR3-PK1 efficacy (%) (CXCR3-PK1; % of CXCL11 mediated effect, CXCR3-PK1, listed as 11/FAUC103 6) | Emax (CXCR3-PK1; % of CXCL11 mediated effect, CXCR3-PK1, read-out: CXCR3-PK1 efficacy (%) (converted)) | CXCR3-PK1 pEC50 ± SEM (CXCR3-PK1; CXCR3-PK1, listed as 11/FAUC103 6) | CXCR3-PK1 pEC50 ± SEM (CXCR3-PK1; CXCR3-PK1, listed as FAUC1036) | Compound | β-arrestin 2 recruitment, intrinsic agonism (result in words) (CXCR3-PK1) | chemotaxis (result in words) [1] | influence on CXCL11 induced migration [1] | induced migration compared to buffer control [1] | CXCR3-PK1 pEC50 ± SEM (CXCR3-PK1; CXCR3-PK1)
1 | 30±5% | 30% | 6.64±0.38 | 6.64 ± 0.38 | CC(C)(C)OC(=O)N[C@@H](CCCCNC(=O)[C@@H]1Cc2ccccc2CN1C(=O)CCC(=O)c1ccccc1)C(=O)NCC(c1ccccc1)c1ccccc1 [Compound 11, Tert-butyl ((S)-1-((2,2-diphenylethyl)amino)-1-oxo-6-((S)-2-(4-oxo-4-phenylbutanoyl)-1,2,3,4-tertahydroisoquinoline-3-carboxamido)hexan-2-yl)carbamate] | activates the β2-arrestin recruitment | weak chemotaxis | no antagonizing effect | approximately 0.25 fold | 
2 |  |  |  |  | COc1ccc(C(=O)CCC(=O)N2Cc3ccccc3C[C@H]2C(=O)NCCCC[C@H](NC(=O)OC(C)(C)C)C(=O)NCC(c2ccccc2)c2ccccc2)cc1 [Compound 14, Tert-butyl ((S)-1-((2,2-diphenylethyl)amino)-6-((S)-2-(4-(4-methoxyphenyl)-4-oxobutanoyl)-1,2,3,4-tetrahydroisoquinoline-3-carboxamido)-1-oxohexan-2-yl)carbomate] | complete loss of intrinsic agonistic properties | strong chemotaxis | significantly higher CXCL11 induced migration | approximately 0.25 fold | No effect
